In PubChem BioAssay (NCI):
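Test compounds were applied to cells in 96-well plates for 48 hours at 5 doses. The concentration for 50% growth inhibition is given as GI50. The concentration for full growth arrest is given as TGI.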

Columns and labels:
Experiment in all cases: inhibition of tumour cell growth, NCI panel, 48 h
CAKI-1 renal = system: CAKI-1 renal
HCT-15 colon = system: HCT-15 colon
MOLT-4 leukemia = system: MOLT-4 leukemia
SN12C renal = system: SN12C renal
A498 renal = system: A498 renal
HCC-2998 colon = system: HCC-2998 colon
T-47D breast = system: T-47D breast
MDA-MB-231 breast = system: MDA-MB-231 breast
SK-MEL-2 melanoma = system: SK-MEL-2 melanoma
EKVX NSCLC = system: EKVX NSCLC
RPMI-8226 leukemia = system: RPMI-8226 leukemia
U251 CNS = system: U251 CNS
CCRF-CEM leukemia = system: CCRF-CEM leukemia
K-562 leukemia = system: K-562 leukemia
OVCAR-3 ovarian = system: OVCAR-3 ovarian
786-0 renal = system: 786-0 renal
ACHN renal = system: ACHN renal
DU-145 prostate = system: DU-145 prostate
LOX IMVI melanoma = system: LOX IMVI melanoma
SF-539 CNS = system: SF-539 CNS
SF-295 CNS = system: SF-295 CNS
HL-60(TB) leukemia = system: HL-60(TB) leukemia
NCI-H23 lung = system: NCI-H23 lung
SF-268 CNS = system: SF-268 CNS
HOP-62 NSCLC = system: HOP-62 NSCLC
RXF 393 renal = system: RXF 393 renal
PC-3 prostate = system: PC-3 prostate
OVCAR-8 ovarian = system: OVCAR-8 ovarian
HOP-92 NSCLC = system: HOP-92 NSCLC
TK-10 renal = system: TK-10 renal
A549 NSCLC = system: A549 NSCLC
SW-620 colon = system: SW-620 colon
M14 melanoma = system: M14 melanoma
UACC-62 melanoma = system: UACC-62 melanoma
MDA-N = system: MDA-N
UACC-257 melanoma = system: UACC-257 melanoma
HCT-116 colon = system: HCT-116 colon
SK-MEL-28 melanoma = system: SK-MEL-28 melanoma
MCF7 breast = system: MCF7 breast
SK-OV-3 ovarian = system: SK-OV-3 ovarian
NCI-H460 lung = system: NCI-H460 lung
MALME-3M melanoma = system: MALME-3M melanoma
COLO 205 colon = system: COLO 205 colon
SR leukemia = system: SR leukemia
UO-31 renal = system: UO-31 renal
OVCAR-5 ovarian = system: OVCAR-5 ovarian
NCI/ADR-RES ovarian = system: NCI/ADR-RES ovarian
SK-MEL-5 melanoma = system: SK-MEL-5 melanoma
MDA-MB-435 = system: MDA-MB-435
IGROV1 ovarian = system: IGROV1 ovarian
NCI-H522 lung = system: NCI-H522 lung
KM12 colon = system: KM12 colon

Work on `C=CC1=C(C)C(Cc2[nH]c(/C=c3\[nH]/c(=C/C4=NC(=O)C(C)/C4=C\C)c(C)c3CCC(=O)O)c(CCC(=O)OC)c2C)NC1=O` (centres undefined) yielded a GI50 (CAKI-1 renal) of 46.3 µM, a TGI (CAKI-1 renal) of over 100 µM and a GI50 (HCT-15 colon) of 21.6 µM. For the same compound, the TGI (HCT-15 colon) was 53.9 µM, the GI50 (MOLT-4 leukemia) was 34.1 µM and the TGI (MOLT-4 leukemia) was over 100 µM. For the same compound, the GI50 (SN12C renal) was 22.2 µM, the TGI (SN12C renal) was 44.6 µM and the GI50 (A498 renal) was over 100 µM. It also gave a TGI (A498 renal) of over 100 µM, a GI50 (HCC-2998 colon) of 26.7 µM and a TGI (HCC-2998 colon) of 67.1 µM. It also gave a GI50 (T-47D breast) of 36.8 µM, a TGI (T-47D breast) of over 100 µM and a GI50 (MDA-MB-231 breast) of 25.4 µM. The TGI (MDA-MB-231 breast) was 58.9 µM, the GI50 (SK-MEL-2 melanoma) was 20.1 µM and the TGI (SK-MEL-2 melanoma) was 39.4 µM. The GI50 (EKVX NSCLC) was 47.7 µM, the TGI (EKVX NSCLC) was over 100 µM and the GI50 (RPMI-8226 leukemia) was 23.9 µM. It also gave a TGI (RPMI-8226 leukemia) of 59.8 µM, a GI50 (U251 CNS) of 22.5 µM and a TGI (U251 CNS) of 52.9 µM. It also gave a GI50 (CCRF-CEM leukemia) of 31.2 µM, a TGI (CCRF-CEM leukemia) of over 100 µM and a GI50 (K-562 leukemia) of 25.7 µM. For the same compound, the TGI (K-562 leukemia) was 61.9 µM, the GI50 (OVCAR-3 ovarian) was 20.1 µM and the TGI (OVCAR-3 ovarian) was 39.4 µM. It also gave a GI50 (786-0 renal) of 22 µM, a TGI (786-0 renal) of 62.5 µM and a GI50 (ACHN renal) of 26.3 µM. It also gave a TGI (ACHN renal) of 77.2 µM, a GI50 (DU-145 prostate) of 62.6 µM and a TGI (DU-145 prostate) of over 100 µM. The GI50 (LOX IMVI melanoma) was 18.6 µM, the TGI (LOX IMVI melanoma) was 37.4 µM and the GI50 (SF-539 CNS) was 25.1 µM. For the same compound, the TGI (SF-539 CNS) was 54.4 µM, the GI50 (SF-295 CNS) was 37.8 µM and the TGI (SF-295 CNS) was over 100 µM. For the same compound, the GI50 (HL-60(TB) leukemia) was 39.8 µM, the TGI (HL-60(TB) leukemia) was over 100 µM and the GI50 (NCI-H23 lung) was 28.3 µM. For the same compound, the TGI (NCI-H23 lung) was 53.6 µM, the GI50 (SF-268 CNS) was 21.2 µM and the TGI (SF-268 CNS) was 59.5 µM. It also gave a GI50 (HOP-62 NSCLC) of 26.4 µM, a TGI (HOP-62 NSCLC) of 62.4 µM and a GI50 (RXF 393 renal) of 21.4 µM. For the same compound, the TGI (RXF 393 renal) was 44 µM, the GI50 (PC-3 prostate) was 32.9 µM and the TGI (PC-3 prostate) was over 100 µM. For the same compound, the GI50 (OVCAR-8 ovarian) was 34.9 µM, the TGI (OVCAR-8 ovarian) was over 100 µM and the GI50 (HOP-92 NSCLC) was 19.6 µM. The TGI (HOP-92 NSCLC) was 51.6 µM, the GI50 (TK-10 renal) was 46.4 µM and the TGI (TK-10 renal) was over 100 µM. For the same compound, the GI50 (A549 NSCLC) was 40.2 µM, the TGI (A549 NSCLC) was over 100 µM and the GI50 (SW-620 colon) was 25.4 µM. It also gave a TGI (SW-620 colon) of 61.4 µM, a GI50 (M14 melanoma) of 28.3 µM and a TGI (M14 melanoma) of 89.5 µM. For the same compound, the GI50 (UACC-62 melanoma) was 18.7 µM, the TGI (UACC-62 melanoma) was 35.9 µM and the GI50 (MDA-N) was 25.6 µM. It also gave a TGI (MDA-N) of 66.7 µM, a GI50 (UACC-257 melanoma) of 7.9 µM and a TGI (UACC-257 melanoma) of 41.1 µM. For the same compound, the GI50 (HCT-116 colon) was 19.8 µM, the TGI (HCT-116 colon) was 36.9 µM and the GI50 (SK-MEL-28 melanoma) was 14.8 µM. It also gave a TGI (SK-MEL-28 melanoma) of 31.9 µM, a GI50 (MCF7 breast) of 26.7 µM and a TGI (MCF7 breast) of over 100 µM. For the same compound, the GI50 (SK-OV-3 ovarian) was 27.9 µM, the TGI (SK-OV-3 ovarian) was 78.2 µM and the GI50 (NCI-H460 lung) was 21.7 µM. For the same compound, the TGI (NCI-H460 lung) was over 100 µM, the GI50 (MALME-3M melanoma) was 31.8 µM and the TGI (MALME-3M melanoma) was 69.8 µM. It also gave a GI50 (COLO 205 colon) of 20.2 µM, a TGI (COLO 205 colon) of 36.3 µM and a GI50 (SR leukemia) of 20 µM. The TGI (SR leukemia) was 46 µM, the GI50 (UO-31 renal) was 18.9 µM and the TGI (UO-31 renal) was 36.1 µM. It also gave a GI50 (OVCAR-5 ovarian) of 37.6 µM, a TGI (OVCAR-5 ovarian) of over 100 µM and a GI50 (NCI/ADR-RES ovarian) of 48.8 µM. It also gave a TGI (NCI/ADR-RES ovarian) of over 100 µM, a GI50 (SK-MEL-5 melanoma) of 19.9 µM and a TGI (SK-MEL-5 melanoma) of 37.4 µM. It also gave a GI50 (MDA-MB-435) of 23.9 µM, a TGI (MDA-MB-435) of 62 µM and a GI50 (IGROV1 ovarian) of 18.8 µM. The TGI (IGROV1 ovarian) was 42.4 µM, the GI50 (NCI-H522 lung) was 17.7 µM and the TGI (NCI-H522 lung) was 32 µM. For the same compound, the GI50 (KM12 colon) was 21 µM and the TGI (KM12 colon) was 40.1 µM.
